The EC50 is the concentration needed to bring the measured effect to its halfway point. What is called Ki is a measure of affinity in units of concentration, obtained from inhibition or displacement.

The record followed here is ChEMBL document CHEMBL4665729, “The SARS-CoV-2 main protease as drug target” (Bioorg Med Chem Lett, 2020).

In experiment [1] the test system is Severe acute respiratory syndrome coronavirus 2. Put plainly: Inhibition of SARS-CoV-2 main protease expressed in expressed in BL21(DE3) Escherichia Coli […] by measuring ratio of K2/Ki by FRET assay.
The nature of experiment [2]: Inhibition of SARS-CoV-2 main protease expressed in expressed in BL21(DE3) Escherichia Coli […] by FRET assay. More on the design: species or system Severe acute respiratory syndrome coronavirus 2.

As for `CC(C)C[C@H](NC(=O)OCc1ccccc1)C(=O)N[C@@H](CC1CCNC1=O)C(O)S(=O)(=O)O` (stereo partly drawn), the Ratio in experiment [1] was found to be 40800 M⁻¹ s⁻¹. Regarding `CC(C)(C)NC(=O)N[C@H](C(=O)N1C[C@H]2[C@@H]([C@H]1C(=O)NC(CC1CCC1)C(=O)C(N)=O)C2(C)C)C(C)(C)C` (stereo partly drawn) [BOCEPREVIR], in experiment [2], the concentration giving a half-maximal response (EC50) was determined as 1310 nM and the Ki turned out to be 1180 nM.
